Assay results published in patent US7829560B2, “1,4-disubstituted naphthalenes as inhibitors of P38 MAP kinase” (Arqule, Inc., priority 2004, dated 2010).

What was measured:
p38α = molecular target: T1, p38α (Homo sapiens, UniProt Q16539); assay: p38 MAP Kinase assay: inhibition of ATF2 phosphorylation, ELISA; type: biochemical; conditions: ATF2 phosphorylation; read-out: [ENZ] P38 ALPHA, IC50, ELISA
T1 construct: p38 MAP Kinases are recombinant human full-length proteins with an amino-terminal GST fusion; GST (N); purchased Upstate Biotechnology Inc; host or cells: E. coli
T1 sequence (Q16539 whole entry, the tested form may be a part): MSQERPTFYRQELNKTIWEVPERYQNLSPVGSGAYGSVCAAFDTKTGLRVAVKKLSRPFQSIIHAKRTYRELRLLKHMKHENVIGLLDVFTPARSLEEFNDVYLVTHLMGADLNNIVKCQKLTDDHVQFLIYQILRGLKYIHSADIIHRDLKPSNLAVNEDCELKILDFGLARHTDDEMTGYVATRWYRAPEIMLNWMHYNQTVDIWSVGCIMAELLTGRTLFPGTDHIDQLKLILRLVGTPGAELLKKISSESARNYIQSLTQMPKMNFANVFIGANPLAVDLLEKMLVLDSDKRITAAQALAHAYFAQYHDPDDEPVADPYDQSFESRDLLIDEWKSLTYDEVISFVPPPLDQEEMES
How it was run: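 In vitro phosphorylation of ATF2 at Thr69 by recombinant human GST-p38 MAP kinase, read by anti-phospho-ATF2 ELISA at 450 nm. Enzyme and compound pre-incubated 15 min at RT, then 30 min reaction at 37 °C with 40 μM ATP and 1.25 μM ATF2; buffer with or without 1% HSA (Method II or I).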

[1] = system: TNFα release from THP-1 cells; assay: Inhibition of TNFα release from LPS-stimulated THP-1 cells, ELISA; type: cell-based; conditions: Homo sapiens, THP-1, THP-1 cells, read-out: [CELL] THP-1, IC50, TNF ALPHA, ELISA
How it was run: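 TNFα released into supernatant after 18 h of 10 μg/ml LPS stimulation was quantified by ELISA and IC50 taken as 50% reduction by non-linear regression. THP-1 cells (10^6/ml; medium with 10% FBS, serum-free or 1% HSA) saw compound for 30 min at 37 °C beforehand; final DMSO ≤0.5%.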

| Compound | IC50 (p38α) | IC50 [1] | melting point |
| --- | --- | --- | --- |
| O=C(Nc1ccc(Oc2ccnc(N3CCOCC3)n2)c2ccccc12)c1cc(F)cc(N2CCOCC2)c1 [Compound B248, 3-Fluoro-5-morpholin-4-yl-N-{4-[(2-morpholin-4-ylpyrimidin-4-yl)oxy]-1-naphthyl}benzamide] | 46.6 nM | 157 nM | 104 to 106 °C |
| CC1CCN(c2cc(F)cc(C(=O)Nc3ccc(OCc4n[nH]c(=O)n4-c4ccccc4)c4ccccc34)c2)CC1 [Compound B263, 3-Fluoro-5-(4-methyl-piperidin-1-yl)-N-[4-(5-oxo-4-phenyl-4,5-dihydro-1H-[1,2,4]triazol-3-ylmethoxy)-naphthalen-1-yl]-benzamide] | 5080 nM | 4260 nM | 140 to 143 °C |
| O=C(Nc1ccc(Oc2ccnc(N3CCCCC3)n2)c2ccccc12)c1cc(F)cc(N2CCOCC2)c1 [Compound B324, 3-Fluoro-5-morpholin-4-yl-N-{4-[(2-piperidin-1-ylpyrimidin-4-yl)oxy]-1-naphthyl}benzamide] | 19 nM | > 1000 nM | 190 to 191 °C |
| CN(C)[C@@H]1CCN(c2nccc(Oc3ccc(NC(=O)c4cc(F)cc(N5CCOCC5)c4)c4ccccc34)n2)C1 [Compound B342, N-[4-({2-[(3R)-3-(dimethylamino)pyrrolidin-1-yl]pyrimidin-4-yl}oxy)-1-naphthyl]-3-fluoro-5-morpholin-4-ylbenzamide] | 22.3 nM | 61.5 nM | 115 to 117 °C |
| CC1CC(C)CN(c2nccc(Oc3ccc(NC(=O)c4cc(F)cc(N5CCOCC5)c4)c4ccccc34)n2)C1 (stereo not drawn) [Compound B348, N-(4-{[2-(3,5-Dimethylpiperidin-1-yl)pyrimidin-4-yl]oxy}-1-naphthyl)-3-fluoro-5-morpholin-4-ylbenzamide] | 166 nM | > 1000 nM | 102 to 104 °C |
| CS(=O)(=O)c1nccc(Oc2ccc(NC(=O)c3cc(F)cc(N4CCOCC4)c3)c3ccccc23)n1 [Compound B268, 3-Fluoro-N-(4-{[2-(methylsulfonyl)pyrimidin-4-yl]oxy}-1-naphthyl)-5-morpholin-4-ylbenzamide] | 519 nM | 1370 nM | 173 to 175 °C |
| O=C(Nc1ccc(Oc2ccnc(NCC3OCCO3)n2)c2ccccc12)c1cc(F)cc(N2CCCCC2)c1 [Compound B411, N-[4-({2-[(1,3-Dioxolan-2-ylmethyl)amino]pyrimidin-4-yl}oxy)-1-naphthyl]-3-fluoro-5-piperidin-1-ylbenzamide] | 1.7 nM | 23.5 nM | 96 to 98 °C |
| O=C(Nc1ccc(Oc2ccnc(N3CCC(O)C3)n2)c2ccccc12)c1cc(F)cc(N2CCOCC2)c1 (stereo not drawn) [Compound B339, 3-Fluoro-N-(4-{[2-(3-hydroxypyrrolidin-1-yl)pyrimidin-4-yl]oxy}-1-naphthyl)-5-morpholin-4-ylbenzamide] | 39.1 nM | 347 nM | 137 to 139 °C |
| O=C(Nc1ccc(Oc2ccnc(N3CCCC3)n2)c2ccccc12)c1cc(F)cc(N2CCOCC2)c1 [Compound B334, 3-Fluoro-5-morpholin-4-yl-N-{4-[(2-pyrrolidin-1-ylpyrimidin-4-yl)oxy]-1-naphthyl}benzamide] | 8.2 nM | 276 nM | 205 to 207 °C |
| C[C@@H]1CN(c2nccc(Oc3ccc(NC(=O)c4cc(F)cc(N5CCCCC5)c4)c4ccccc34)n2)C[C@H](C)O1 [Compound B416, N-[4-({2-[(2R,6S)-2,6-Dimethylmorpholin-4-yl]pyrimidin-4-yl}oxy)-1-naphthyl]-3-fluoro-5-piperidin-1-ylbenzamide] | 50.2 nM | 472 nM | 174 to 176 °C |
| CSc1nccc(Oc2ccc(NC(=O)c3cc(F)cc(N4CCOCC4)c3)c3ccccc23)n1 [Compound B246, 3-Fluoro-N-(4-{[2-(methylthio)pyrimidin-4-yl]oxy}-1-naphthyl)-5-morpholin-4-ylbenzamide] | 40.2 nM | 69.4 nM | 189 to 190 °C |
| CC1CCCN1c1nccc(Oc2ccc(NC(=O)c3cc(F)cc(N4CCCCC4)c3)c3ccccc23)n1 (stereo not drawn) [Compound B404, 3-Fluoro-N-(4-{[2-(2-methylpyrrolidin-1-yl)pyrimidin-4-yl]oxy}-1-naphthyl)-5-piperidin-1-ylbenzamide] | 151 nM | 1120 nM | 93 to 94 °C |
| O=C(Nc1ccc(OCc2ccncc2)c2ccccc12)c1cc(F)cc(N2CCCCC2)c1 [Compound B230, 3-Fluoro-5-piperidin-1-yl-N-[4-(pyridin-4-ylmethoxy)-1-naphthyl]benzamide] | 25.7 nM | 630 nM | 69 to 71 °C |
| COCCNc1nccc(Oc2ccc(NC(=O)c3cc(F)cc(N4CCCCC4)c3)c3ccccc23)n1 [Compound B374, 3-Fluoro-N-[4-({2-[(2-methoxyethyl)amino]pyrimidin-4-yl}oxy)-1-naphthyl]-5-piperidin-1-ylbenzamide] | 4.3 nM | 147 nM | 87 to 88 °C |
| O=C1CN(c2nccc(Oc3ccc(NC(=O)c4cc(F)cc(N5CCOCC5)c4)c4ccccc34)n2)CCN1 [Compound B368, 3-Fluoro-5-morpholin-4-yl-N-(4-{[2-(3-oxopiperazin-1-yl)pyrimidin-4-yl]oxy}-1-naphthyl)benzamide] | 19.7 nM | 141 nM | 108 to 110 °C |
| O=C(Nc1ccc(Oc2ccnc(NCC3CCCO3)n2)c2ccccc12)c1cc(F)cc(N2CCOCC2)c1 (stereo not drawn) [Compound B327, 3-Fluoro-5-morpholin-4-yl-N-[4-({2-[(tetrahydrofuran-2-ylmethyl)amino]pyrimidin-4-yl}oxy)-1-naphthyl]benzamide] | 2.1 nM | 24.8 nM | 103 to 105 °C |
| COCCN(C)c1nccc(Oc2ccc(NC(=O)c3cc(F)cc(N4CCOCC4)c3)c3ccccc23)n1 [Compound B370, 3-Fluoro-N-[4-({2-[(2-methoxyethyl)(methyl)amino]pyrimidin-4-yl}oxy)-1-naphthyl]-5-morpholin-4-ylbenzamide] | 21.1 nM | 330 nM | 96 to 98 °C |
| CN(Cc1ccco1)c1nccc(Oc2ccc(NC(=O)c3cc(F)cc(N4CCCCC4)c3)c3ccccc23)n1 [Compound B418, 3-Fluoro-N-[4-({2-[(2-furylmethyl)(methyl)amino]pyrimidin-4-yl}oxy)-1-naphthyl]-5-piperidin-1-ylbenzamide] | 102 nM | 538 nM | 155 to 156 °C |
| CC(C)(C)OC(=O)N1CCN(c2nccc(Oc3ccc(NC(=O)c4cc(F)cc(N5CCCCC5)c4)c4ccccc34)n2)CC1 [Compound B397, tert-Butyl-4-[4-({4-[(3-fluoro-5-piperidin-1-ylbenzoyl)amino]-1-naphthyl}oxy)pyrimidin-2-yl]piperazine-1-carboxylate] | 109 nM | > 1000 nM | 175 to 177 °C |
| CCn1c(COc2ccc(NC(=O)c3cc(F)cc(N4CCC(C)CC4)c3)c3ccccc23)n[nH]c1=O [Compound B220, N-[4-(4-Ethyl-5-oxo-4,5-dihydro-1H-[1,2,4]triazol-3-ylmethoxy)-naphthalen-1-yl]-3-fluoro-5-(4-methyl-piperidin-1-yl)-benzamide] | 145 nM | 2870 nM | 240 to 241 °C |
| O=C(Nc1ccc(Oc2ccnc(NC3CCCCC3)n2)c2ccccc12)c1cc(F)cc(N2CCCCC2)c1 [Compound B371, N-(4-{[2-(cyclohexylamino)pyrimidin-4-yl]oxy}-1-naphthyl)-3-fluoro-5-piperidin-1-ylbenzamide] | 26.4 nM | 37.1 nM | 118 to 120 °C |
| O=C(Nc1ccc(Oc2ccnc(NCCO)n2)c2ccccc12)c1cc(F)cc(N2CCOCC2)c1 [Compound B252, 3-Fluoro-N-[4-({2-[(2-hydroxyethyl)amino]pyrimidin-4-yl}oxy)-1-naphthyl]-5-morpholin-4-ylbenzamide] | 31.9 nM | 30.8 nM | 127 to 129 °C |
| CSc1nccc(Oc2ccc(NC(=O)c3cc(F)cc(N4CCC(C)CC4)c3)c3ccccc23)n1 [Compound B247, 3-Fluoro-5-(4-methylpiperidin-1-yl)-N-(4-{[2-(methylthio)pyrimidin-4-yl]oxy}-1-naphthyl)benzamide] | 587 nM | 780 nM | 142 to 143 °C |
| O=C(Nc1ccc(Oc2ccnc(NC3CCC3)n2)c2ccccc12)c1cc(F)cc(N2CCOCC2)c1 [Compound B331, N-(4-{[2-(Cyclobutylamino)pyrimidin-4-yl]oxy}-1-naphthyl)-3-fluoro-5-morpholin-4-ylbenzamide] | 3.7 nM | 237 nM | 110 to 112 °C |
| COc1nccc(Oc2ccc(NC(=O)c3cc(F)cc(N4CCOCC4)c3)c3ccccc23)n1 [Compound B267, 3-Fluoro-N-{4-[(2-methoxypyrimidin-4-yl)oxy]-1-naphthyl}-5-morpholin-4-ylbenzamide] | 56.9 nM | 29.2 nM | 216 to 217 °C |
| O=C1CN(c2nccc(Oc3ccc(NC(=O)c4cc(F)cc(N5CCCCC5)c4)c4ccccc34)n2)CCN1 [Compound B421, 3-Fluoro-N-(4-{[2-(3-oxopiperazin-1-yl)pyrimidin-4-yl]oxy}-1-naphthyl)-5-piperidin-1-ylbenzamide] | 17.8 nM | 689 nM | 140 to 142 °C |
